Values joined by “and” are separate entries in the source; they are usually repeats but may differ in a detail not shown here. Identical values can stand only once. Inconclusive results and toxic doses are left out.
Test system: L1210 leukemia ip in BDF1 mice, survival T/C
Test: NCI In Vivo Anticancer Drug Screen. Data for tumor model L1210 Leukemia (intraperitoneal) in B6D2F1 (BDF1) mice
Details: endpoint: mean survival time, higher = longer survival
Summary of the method: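 Ratio derived from survival: compound-dosed mice over vehicle-dosed mice, all bearing a transplantable tumor.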

[1] = dose: 100.0 mg/kg/injection, schedule: Q01DX009 (ip), vehicle: Klucel (hydroxypropylcellulose) (HPC)
[2] = dose: 200.0 mg/kg/injection, schedule: Q01DX009 (ip), vehicle: Klucel (hydroxypropylcellulose) (HPC)
[3] = dose: 50.0 mg/kg/injection, schedule: Q04DX002 (ip), vehicle: saline

CC(=O)NC1=C(N2CC2)C(=O)C(NC(C)=O)=C(N2CC2)C1=O
T/C (dose: 0.01 mg/kg/injection, schedule: Q01DX Z (ip), vehicle: alkali diluted with saline): 96 % of control
T/C (dose: 0.03 mg/kg/injection, schedule: Q01DX Z (ip), vehicle: alkali diluted with saline): 96 % of control
T/C (dose: 0.06 mg/kg/injection, schedule: Q01DX006 (iv), vehicle: saline): 113 % of control
T/C (dose: 0.06 mg/kg/injection, schedule: Q01DX Z (ip), vehicle: alkali diluted with saline): 97 % of control and 105 % of control
T/C (dose: 0.06 mg/kg/injection, schedule: Q01DX Z (ip), vehicle: saline): 113 % of control
T/C (dose: 0.12 mg/kg/injection, schedule: Q01DX Z (ip), vehicle: alkali diluted with saline): 100 % of control and 102 % of control
T/C (dose: 0.12 mg/kg/injection, schedule: Q01DX Z (oral), vehicle: carboxymethylcellulose (CMC)): 97 % of control
T/C (dose: 0.13 mg/kg/injection, schedule: Q01DX006 (iv), vehicle: saline): 118 % of control
T/C (dose: 0.24 mg/kg/injection, schedule: Q01DX Z (ip), vehicle: alkali diluted with saline): 109 % of control
T/C (dose: 0.25 mg/kg/injection, schedule: Q01DX006 (iv), vehicle: saline): 108 % of control
T/C (dose: 0.25 mg/kg/injection, schedule: Q01DX Z (im), vehicle: saline): 121 % of control
T/C (dose: 0.25 mg/kg/injection, schedule: Q01DX Z (ip), vehicle: saline): 159 % of control
T/C (dose: 0.25 mg/kg/injection, schedule: Q01DX Z (oral), vehicle: carboxymethylcellulose (CMC)): 101 % of control
T/C (dose: 0.25 mg/kg/injection, schedule: Q01DX Z (sc), vehicle: saline): 102 % of control
T/C (dose: 0.38 mg/kg/injection, schedule: Q03DX005 (oral), vehicle: saline): 111 % of control
T/C (dose: 0.38 mg/kg/injection, schedule: Q03DX006 (oral), vehicle: saline): 106 % of control
T/C (dose: 0.48 mg/kg/injection, schedule: Q01DX Z (ip), vehicle: alkali diluted with saline): 97 % of control
T/C (dose: 0.5 mg/kg/injection, schedule: Q01DX Z (ip), vehicle: saline): 185 % of control and 201 % of control
T/C (dose: 0.5 mg/kg/injection, schedule: Q01DX Z (oral), vehicle: carboxymethylcellulose (CMC)): 100 % of control
T/C (dose: 0.75 mg/kg/injection, schedule: Q03DX005 (oral), vehicle: saline): 111 % of control
T/C (dose: 0.75 mg/kg/injection, schedule: Q03DX006 (oral), vehicle: saline): 109 % of control
T/C (dose: 0.9 mg/kg/injection, schedule: Q01DX001 (oral), vehicle: saline): 103 % of control and 104 % of control and 108 % of control
T/C (dose: 0.9 mg/kg/injection, schedule: Q07DX002 (oral), vehicle: saline): 108 % of control
T/C (dose: 0.9 mg/kg/injection, schedule: Q07DX003 (oral), vehicle: saline): 101 % of control
T/C (dose: 0.96 mg/kg/injection, schedule: Q01DX Z (ip), vehicle: alkali diluted with saline): 103 % of control
T/C (dose: 0.96 mg/kg/injection, schedule: Q01DX Z (ip), vehicle: other): 194 % of control
T/C (dose: 1.0 mg/kg/injection, schedule: Q01DX006 (iv), vehicle: saline): 170 % of control
T/C (dose: 1.0 mg/kg/injection, schedule: Q01DX Z (ip), vehicle: carboxymethylcellulose (CMC)): 155 % of control
T/C (dose: 1.0 mg/kg/injection, schedule: Q01DX Z (ip), vehicle: saline): 164 % of control and 220 % of control
T/C (dose: 1.0 mg/kg/injection, schedule: Q01DX Z (oral), vehicle: carboxymethylcellulose (CMC)): 109 % of control
T/C (dose: 1.0 mg/kg/injection, schedule: Q01DX Z (oral), vehicle: saline): 121 % of control
T/C (dose: 1.0 mg/kg/injection, schedule: Q01DX Z (sc), vehicle: saline): 161 % of control
T/C (dose: 1.0 mg/kg/injection, schedule: Q#A X Z (oral), vehicle: saline): 115 % of control
T/C (dose: 1.25 mg/kg/injection, schedule: Q01DX Z (ip), vehicle: carboxymethylcellulose (CMC)): 164 % of control
T/C (dose: 1.5 mg/kg/injection, schedule: Q01DX Z (ip), vehicle: saline): 163 % of control
T/C (dose: 1.5 mg/kg/injection, schedule: Q03DX005 (oral), vehicle: saline): 108 % of control
T/C (dose: 1.5 mg/kg/injection, schedule: Q03DX006 (oral), vehicle: saline): 124 % of control and 91 % of control
T/C (dose: 1.75 mg/kg/injection, schedule: Q01DX001 (oral), vehicle: saline): 104 % of control and 111 % of control and 117 % of control
T/C (dose: 1.75 mg/kg/injection, schedule: Q07DX002 (oral), vehicle: saline): 108 % of control
T/C (dose: 1.75 mg/kg/injection, schedule: Q07DX003 (oral), vehicle: saline): 117 % of control
T/C (dose: 1.9 mg/kg/injection, schedule: Q01DX Z (ip), vehicle: alkali diluted with saline): 101 % of control
T/C (dose: 1.9 mg/kg/injection, schedule: Q01DX Z (ip), vehicle: other): 122 % of control
T/C (dose: 2.0 mg/kg/injection, schedule: Q01DX006 (iv), vehicle: saline): 168 % of control and 174 % of control
T/C (dose: 2.0 mg/kg/injection, schedule: Q01DX Z (im), vehicle: saline): 113 % of control
T/C (dose: 2.0 mg/kg/injection, schedule: Q01DX Z (ip), vehicle: saline): 116 % of control and 117 % of control
T/C (dose: 2.0 mg/kg/injection, schedule: Q01DX Z (oral), vehicle: saline): 118 % of control
T/C (dose: 2.2 mg/kg/injection, schedule: Q01DX Z (ip), vehicle: carboxymethylcellulose (CMC)): 103 % of control and 114 % of control
T/C (dose: 2.5 mg/kg/injection, schedule: Q01DX Z (ip), vehicle: carboxymethylcellulose (CMC)): 117 % of control
T/C (dose: 3.0 mg/kg/injection, schedule: Q01DX Z (ip), vehicle: saline): 106 % of control
T/C (dose: 3.0 mg/kg/injection, schedule: Q03DX006 (oral), vehicle: saline): 94 % of control and 114 % of control
T/C (dose: 3.3 mg/kg/injection, schedule: Q01DX Z (ip), vehicle: carboxymethylcellulose (CMC)): 101 % of control and 90 % of control
T/C (dose: 3.5 mg/kg/injection, schedule: Q01DX001 (oral), vehicle: saline): 101 % of control and 105 % of control and 106 % of control
T/C (dose: 3.5 mg/kg/injection, schedule: Q07DX002 (oral), vehicle: saline): 97 % of control
T/C (dose: 3.5 mg/kg/injection, schedule: Q07DX003 (oral), vehicle: saline): 109 % of control
T/C (dose: 4.0 mg/kg/injection, schedule: Q01DX006 (iv), vehicle: saline): 88 % of control
T/C (dose: 4.0 mg/kg/injection, schedule: Q01DX Z (sc), vehicle: saline): 96 % of control
T/C (dose: 4.9 mg/kg/injection, schedule: Q01DX Z (ip), vehicle: carboxymethylcellulose (CMC)): 90 % of control
T/C (dose: 6.0 mg/kg/injection, schedule: Q03DX005 (oral), vehicle: saline): 103 % of control
T/C (dose: 6.0 mg/kg/injection, schedule: Q03DX006 (oral), vehicle: saline): 124 % of control
T/C (dose: 7.0 mg/kg/injection, schedule: Q01DX001 (oral), vehicle: saline): 106 % of control and 120 % of control
T/C (dose: 7.0 mg/kg/injection, schedule: Q07DX003 (oral), vehicle: saline): 117 % of control
T/C (dose: 8.0 mg/kg/injection, schedule: Q01DX Z (oral), vehicle: saline): 156 % of control and 175 % of control
T/C (dose: 8.0 mg/kg/injection, schedule: Q#A X Z (oral), vehicle: saline): 152 % of control
T/C (dose: 16.0 mg/kg/injection, schedule: Q01DX Z (oral), vehicle: saline): 122 % of control
T/C (dose: 28.0 mg/kg/injection, schedule: Q07DX003 (oral), vehicle: saline): 153 % of control
T/C (dose: 32.0 mg/kg/injection, schedule: Q01DX Z (oral), vehicle: saline): 95 % of control
T/C (dose: 112.0 mg/kg/injection, schedule: Q07DX003 (oral), vehicle: saline): 111 % of control
T/C (dose: 224.0 mg/kg/injection, schedule: Q01DX001 (oral), vehicle: saline): 120 % of control
T/C (dose: 448.0 mg/kg/injection, schedule: Q01DX001 (oral), vehicle: saline): 108 % of control
T/C (dose: 600.0 mg/kg/injection, schedule: Q01DX001 (oral), vehicle: saline): 107 % of control
T/C (dose: 800.0 mg/kg/injection, schedule: Q01DX001 (oral), vehicle: saline): 113 % of control
T/C (dose: 1000.0 mg/kg/injection, schedule: Q01DX001 (oral), vehicle: saline): 110 % of control

COc1cc([N+](=O)[O-])ccc1NC(=O)Oc1ccc(F)cc1Cl
T/C [1]: 94 % of control
T/C [2]: 88 % of control

NC1CC(C(=O)O)CCC1S (stereo unspecified)
T/C (dose: 12.5 mg/kg/injection, schedule: Q04DX002 (ip), vehicle: saline): 106 % of control
T/C (dose: 50.0 mg/kg/injection, schedule: Q04DX002 (ip), vehicle: other): 94 % of control
T/C [3]: 87 % of control
T/C (dose: 100.0 mg/kg/injection, schedule: Q04DX002 (ip), vehicle: other): 91 % of control

O=[As](O)(c1ccccc1)C1CCCCC1O (stereo unspecified)
T/C (dose: 6.25 mg/kg/injection, schedule: Q01DX001 (ip), vehicle: saline with Tween-80): 97 % of control
T/C (dose: 12.5 mg/kg/injection, schedule: Q01DX001 (ip), vehicle: saline with Tween-80): 98 % of control
T/C (dose: 25.0 mg/kg/injection, schedule: Q01DX001 (ip), vehicle: saline with Tween-80): 111 % of control

CC(=O)Nc1cc([N+](=O)[O-])ccc1C
T/C [1]: 100 % of control
T/C [2]: 105 % of control

CCCc1cnc(NCCCC(N)C(=O)O)nc1 (stereo unspecified)
T/C (dose: 25.0 mg/kg/injection, schedule: Q04DX002 (ip), vehicle: saline): 95 % of control
T/C [3]: 95 % of control
T/C (dose: 100.0 mg/kg/injection, schedule: Q04DX002 (ip), vehicle: saline): 89 % of control
